Earlier results as cited in PMC4405790 (Pharmaceutical research, 2012).
“Also recorded” adds a separate entry of the source.

What was measured:
[1] = aqueous

Cc1cc(C)cc(C(=O)c2c(C(C)C)c(=O)[nH]c(=O)n2CC2CC2)c1 [IQP-0528, 1-(3-Cyclopropyl)methyl-6-(3,5-dimethylbenzoyl)-5-isopropyl-2,4(1H,3H)-pyrimidinedione]
activity against laboratory strains of virus (HIV): nanomolar
activity against representative clinical strains of HIV (HIV): nanomolar to subnanomolar
level of activity as a NNRTI (HIV; cell-based in vitro assays): subnanomolar
level of activity as inhibitor of a step in virus entry (HIV; cell-based in vitro assays): nanomolar
solubility [1]: low solubility; also recorded: very low solubility
